Experimental data published in ChEMBL document CHEMBL3217497, “Design, synthesis and antiproliferative activity of indole analogues of indanocine” (2013).

How the values were obtained:
Type in all cases: functional
SF-268 = experiment: Cytotoxicity against human SF268 cells assessed as growth inhibition
[1] = Cytotoxicity against human OVCAR8 cells assessed as growth inhibition; settings: OVCAR-8
NCI-H460 = experiment: Cytotoxicity against human NCI-H460 cells assessed as growth inhibition
SK-OV-3 = experiment: Cytotoxicity against human SKOV3 cells assessed as growth inhibition
[2] = Cytotoxicity against human EKVX cells assessed as growth inhibition
M14 = experiment: Cytotoxicity against human M14 cells assessed as growth inhibition
NCI-H322M = experiment: Cytotoxicity against human NCI-H322M cells assessed as growth inhibition
[3] = Cytotoxicity against human Hs 578T cells assessed as growth inhibition
[4] = Cytotoxicity against human OVCAR5 cells assessed as growth inhibition; settings: OVCAR-5
COLO 205 = experiment: Cytotoxicity against human COLO205 cells assessed as growth inhibition
U-251 = experiment: Cytotoxicity against human U251 cells assessed as growth inhibition
[5] = Cytotoxicity against human UACC257 cells assessed as growth inhibition; settings: UACC-257
HCC 2998 = experiment: Cytotoxicity against human HCC2998 cells assessed as growth inhibition
CCRF-CEM = experiment: Cytotoxicity against human CCRF-CEM cells assessed as growth inhibition
786-0 = experiment: Cytotoxicity against human 786-0 cells assessed as growth inhibition
HOP-92 = experiment: Cytotoxicity against human HOP92 cells assessed as growth inhibition
Malme-3M = experiment: Cytotoxicity against human MALME-3M cells assessed as growth inhibition
SNB-19 = experiment: Cytotoxicity against human SNB19 cells assessed as growth inhibition
KM12 = experiment: Cytotoxicity against human KM12 cells assessed as growth inhibition
[6] = Cytotoxicity against human NCI-ADR-RES cells assessed as growth inhibition
A549 = experiment: Cytotoxicity against human A549 cells assessed as growth inhibition
LOX IMVI = experiment: Cytotoxicity against human LOXIMVI cells assessed as growth inhibition
NCI-H522 = experiment: Cytotoxicity against human NCI-H522 cells assessed as growth inhibition
ACHN = experiment: Cytotoxicity against human ACHN cells assessed as growth inhibition
RPMI-8226 = experiment: Cytotoxicity against human RPMI8226 cells assessed as growth inhibition
MDA-MB-231 = experiment: Cytotoxicity against human MDA-MB-231 cells assessed as growth inhibition
RXF 393 = experiment: Cytotoxicity against human RXF393 cells assessed as growth inhibition
K562 = experiment: Cytotoxicity against human K562 cells assessed as growth inhibition
T47D = experiment: Cytotoxicity against human T47D cells assessed as growth inhibition
[7] = Cytotoxicity against human UO31 cells assessed as growth inhibition; settings: UO-31
PC-3 = experiment: Cytotoxicity against human PC3 cells assessed as growth inhibition
SF-295 = experiment: Cytotoxicity against human SF295 cells assessed as growth inhibition
[8] = Cytotoxicity against human OVCAR4 cells assessed as growth inhibition; settings: OVCAR-4
[9] = Cytotoxicity against human HCT15 cells assessed as growth inhibition; settings: HCT-15
SR = experiment: Cytotoxicity against human SR cells assessed as growth inhibition
NCI-H23 = experiment: Cytotoxicity against human NCI-H23 cells assessed as growth inhibition
BT-549 = experiment: Cytotoxicity against human BT549 cells assessed as growth inhibition
SK-MEL-28 = experiment: Cytotoxicity against human SK-MEL-28 cells assessed as growth inhibition
DU-145 = experiment: Cytotoxicity against human DU145 cells assessed as growth inhibition
[10] = Cytotoxicity against human OVCAR3 cells assessed as growth inhibition; settings: OVCAR-3
NCI-H226 = experiment: Cytotoxicity against human NCI-H226 cells assessed as growth inhibition
MDA-MB-468 = experiment: Cytotoxicity against human MDA-MB-468 cells assessed as growth inhibition
SF-539 = experiment: Cytotoxicity against human SF539 cells assessed as growth inhibition
MDA-MB-435 = experiment: Cytotoxicity against human MDA-MB-435 cells assessed as growth inhibition
[11] = Cytotoxicity against human UACC62 cells assessed as growth inhibition; settings: UACC-62
CAKI-1 = experiment: Cytotoxicity against human CAKI-1 cells assessed as growth inhibition
HOP-62 = experiment: Cytotoxicity against human HOP62 cells assessed as growth inhibition
SW-620 = experiment: Cytotoxicity against human SW620 cells assessed as growth inhibition
TK-10 = experiment: Cytotoxicity against human TK10 cells assessed as growth inhibition
SK-MEL-5 = experiment: Cytotoxicity against human SK-MEL-5 cells assessed as growth inhibition
MOLT-4 = experiment: Cytotoxicity against human MOLT4 cells assessed as growth inhibition
HT-29 = experiment: Cytotoxicity against human HT-29 cells assessed as growth inhibition
IGROV-1 = experiment: Cytotoxicity against human IGROV1 cells assessed as growth inhibition
SK-MEL-2 = experiment: Cytotoxicity against human SK-MEL-2 cells assessed as growth inhibition
SNB-75 = experiment: Cytotoxicity against human SNB75 cells assessed as growth inhibition
A498 = experiment: Cytotoxicity against human A498 cells assessed as growth inhibition
MCF7 = experiment: Cytotoxicity against human MCF7 cells assessed as growth inhibition
HL-60(TB) = experiment: Cytotoxicity against human HL-60(TB) cells assessed as growth inhibition
HCT-116 = experiment: Cytotoxicity against human HCT116 cells assessed as growth inhibition
SN12C = experiment: Cytotoxicity against human SN12C cells assessed as growth inhibition

Cc1cc(/C=C2\CCc3c([nH]c4ccccc34)C2=O)cc(C)c1O
GI50 (SF-268): 730 nM | GI50 [1]: 530 nM | GI50 (NCI-H460): 410 nM | GI50 (SK-OV-3): 470 nM | GI50 [2]: 3380 nM | GI50 (M14): 340 nM | GI50 (NCI-H322M): 530 nM | GI50 [3]: 380 nM | GI50 [4]: 2350 nM | GI50 (COLO 205): 14200 nM | GI50 (U-251): 430 nM | GI50 [5]: 370 nM | GI50 (HCC 2998): 2210 nM | GI50 (CCRF-CEM): 360 nM | GI50 (786-0): 880 nM | GI50 (HOP-92): 780 nM | GI50 (Malme-3M): 380 nM | GI50 (SNB-19): 580 nM | GI50 (KM12): 390 nM | GI50 [6]: 310 nM | GI50 (A549): 550 nM | GI50 (LOX IMVI): 760 nM | GI50 (NCI-H522): 130 nM | GI50 (ACHN): 770 nM | GI50 (RPMI-8226): 470 nM | GI50 (MDA-MB-231): 1060 nM | GI50 (RXF 393): 520 nM | GI50 (K562): 320 nM | GI50 (T47D): 740 nM | GI50 [7]: 450 nM | GI50 (PC-3): 1060 nM | GI50 (SF-295): 1880 nM | GI50 [8]: 1350 nM | GI50 [9]: 420 nM | GI50 (SR): 220 nM | GI50 (NCI-H23): 650 nM | GI50 (BT-549): 530 nM | GI50 (SK-MEL-28): 740 nM | GI50 (DU-145): 540 nM | GI50 [10]: 330 nM | GI50 (NCI-H226): 3290 nM | GI50 (MDA-MB-468): 290 nM | GI50 (SF-539): 320 nM | GI50 (MDA-MB-435): 120 nM | GI50 [11]: 420 nM | GI50 (CAKI-1): 610 nM | GI50 (HOP-62): 650 nM | GI50 (SW-620): 410 nM | GI50 (TK-10): 540 nM | GI50 (SK-MEL-5): 330 nM | GI50 (MOLT-4): 560 nM | GI50 (HT-29): 4320 nM | GI50 (IGROV-1): 740 nM | GI50 (SK-MEL-2): 320 nM | GI50 (SNB-75): 290 nM | GI50 (A498): 1830 nM | GI50 (MCF7): 350 nM | GI50 (HL-60(TB)): 210 nM | GI50 (HCT-116): 440 nM | GI50 (SN12C): 620 nM
